Experimental data reported in ChEMBL document CHEMBL1142336, “Overcoming undesirable HERG potency of chemokine receptor antagonists using baseline lipophilicity relationships” (J Med Chem, 2008).

Assays:
[1] = molecular target: C-C chemokine receptor type 8 (Homo sapiens, UniProt P51685); test: Antagonist activity at CCR8 receptor; assay type: functional
[2] = Lipophilicity, log D at pH 7.4; conditions: buffer
[3] = molecular target: Voltage-gated inwardly rectifying potassium channel KCNH2 (Homo sapiens, UniProt Q12809); test: Displacement of [3H]dofetilide from human recombinant ERG potassium channel expressed in HEK293 cells by patch clamp method
Sequence of Voltage-gated inwardly rectifying potassium channel KCNH2 (Q12809 whole entry): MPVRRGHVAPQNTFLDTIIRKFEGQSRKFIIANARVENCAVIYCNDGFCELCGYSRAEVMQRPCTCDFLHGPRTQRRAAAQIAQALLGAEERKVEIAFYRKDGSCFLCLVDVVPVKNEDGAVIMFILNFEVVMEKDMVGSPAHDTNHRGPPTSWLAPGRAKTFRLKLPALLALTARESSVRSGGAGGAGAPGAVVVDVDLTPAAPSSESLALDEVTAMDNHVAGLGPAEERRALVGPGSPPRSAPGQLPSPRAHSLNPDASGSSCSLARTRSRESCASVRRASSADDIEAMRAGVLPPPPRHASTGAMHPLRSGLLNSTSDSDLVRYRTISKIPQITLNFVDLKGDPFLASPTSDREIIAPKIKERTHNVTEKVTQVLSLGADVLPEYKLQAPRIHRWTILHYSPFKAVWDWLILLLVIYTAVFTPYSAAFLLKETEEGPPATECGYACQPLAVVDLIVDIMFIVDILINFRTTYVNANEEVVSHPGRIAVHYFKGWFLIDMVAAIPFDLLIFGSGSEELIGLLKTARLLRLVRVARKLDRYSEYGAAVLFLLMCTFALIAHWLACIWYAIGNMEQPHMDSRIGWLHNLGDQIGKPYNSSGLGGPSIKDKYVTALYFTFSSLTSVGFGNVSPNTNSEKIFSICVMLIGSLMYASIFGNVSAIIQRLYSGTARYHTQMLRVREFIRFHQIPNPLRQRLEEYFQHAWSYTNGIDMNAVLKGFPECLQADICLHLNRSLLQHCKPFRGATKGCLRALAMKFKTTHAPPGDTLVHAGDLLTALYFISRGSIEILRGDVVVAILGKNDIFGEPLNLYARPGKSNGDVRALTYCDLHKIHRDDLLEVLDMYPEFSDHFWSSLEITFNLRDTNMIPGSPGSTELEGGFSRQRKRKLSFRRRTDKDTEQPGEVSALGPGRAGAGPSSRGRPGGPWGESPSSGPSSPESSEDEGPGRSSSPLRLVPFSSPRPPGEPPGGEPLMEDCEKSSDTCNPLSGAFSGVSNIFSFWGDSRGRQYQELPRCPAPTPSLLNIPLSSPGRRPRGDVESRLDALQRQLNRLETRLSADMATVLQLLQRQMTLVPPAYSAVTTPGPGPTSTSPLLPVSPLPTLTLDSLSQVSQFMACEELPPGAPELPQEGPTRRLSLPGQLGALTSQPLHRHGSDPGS

Sequence of C-C chemokine receptor type 8 (P51685 whole entry): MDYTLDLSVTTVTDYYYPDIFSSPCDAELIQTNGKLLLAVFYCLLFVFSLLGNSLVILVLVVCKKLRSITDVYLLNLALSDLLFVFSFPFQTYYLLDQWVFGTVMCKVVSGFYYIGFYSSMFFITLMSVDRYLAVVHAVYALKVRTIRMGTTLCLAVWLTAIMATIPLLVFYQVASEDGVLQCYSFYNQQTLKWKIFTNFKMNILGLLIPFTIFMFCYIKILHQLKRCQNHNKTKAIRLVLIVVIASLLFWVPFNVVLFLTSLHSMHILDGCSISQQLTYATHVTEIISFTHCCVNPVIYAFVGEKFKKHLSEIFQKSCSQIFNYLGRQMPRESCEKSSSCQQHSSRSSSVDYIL

Row | SMILES | IC50 [1] | logD [2] | IC50 [3]
1 | COc1ccccc1Oc1cccc(CN2CCC3(CC2)CCN(C(=O)c2ccc(Cl)cc2)CC3)c1 | 0.012 µM | 3.5 | –
2 | O=C(c1ccncn1)N1CCC2(CCN(Cc3cccc(Oc4ccccc4)c3)CC2)CC1 | 0.0275 µM | 2.4 | –
3 | O=C(c1ccc(O)cc1OC[C@@H](O)CN1CCC2(CC1)Cc1cc(Cl)ccc1O2)N1C[C@H](O)CO1 | – | 1.55 | 0.0251 µM
4 | O=C(c1ccncc1)N1CCC2(CCN(Cc3ccccc3Oc3ccccc3)CC2)CC1 | 0.0331 µM | – | –

Now from value to compound, other results behind:

Row | IC50 [1] | logD [2] | SMILES | IC50 [3]
5 | 0.166 µM | 1.2 | O=C(c1cc[n+]([O-])cc1)N1CCC2(CCN(Cc3cccc(Oc4ccccc4)c3)CC2)CC1 | –
6 | 0.115 µM | 0.5 | COc1ccccc1Oc1ccccc1CN1CCC2(CC1)CCN(C(=O)c1cc[n+]([O-])cc1)CC2 | –
7 | 0.0794 µM | 0.5 | COc1ccccc1Oc1ccccc1CN1CCC2(CC1)CCN(C(=O)c1cccc[n+]1[O-])CC2 | 1.91 µM
8 | 0.012 µM | 1.8 | COc1ccccc1Oc1ccccc1CN1CCC2(CC1)CCN(C(=O)c1ccncc1)CC2 | –
9 | – | 3.5 | O=C(c1ccc(Cl)cc1)N1CCC2(CCN(Cc3ccccc3Oc3ccccc3)CC2)CC1 | –
